This is an account of results in ChEMBL document CHEMBL6103620, “Gymnopeptides C and D, Highly N-Methylated Fungal Cyclopeptides” (J Nat Prod, 2025).

For experiment [1], the system named is A-375. Briefly: Antiproliferative activity against human A-375 cells assessed as reduction in cell viability incubated for 72 hrs by MTT assay. The class given is functional, cell-based. A general note: Formazan colour is commonly taken as a measure of viable cells.
For experiment [2], the system named is A-375. The experiment in a line: Inhibition of cell migration in human A-375 cells assessed as decrease in number of cell migration into lower compartment at 50 nM measured after 16 hrs. The class given is functional, cell-based.
The test system of experiment [3] is HaCaT. The experiment in a line: Antiproliferative activity against human HaCaT cells assessed as reduction in cell viability incubated for 72 hrs by MTT assay. The experiment is classed as functional, cell-based.
The subject of experiment [4] is A-375. The experiment in a line: Inhibition of cell migration in human A-375 cells assessed as reduction in cell numbers in wound area at 5 nM incubated for 72 hrs by methyl green staining based scratch assay. The experiment is classed as functional.
The subject of experiment [5] is A-375. Briefly: Induction of apoptosis in human A-375 cells assessed as increase in caspase-3 activity at 50 nM incubated for 24 hrs. The experiment is classed as functional, cell-based.

Molecules are shown by their SMILES. Active and inactive are the calls of the source. No cut-off for these calls is given here. Square brackets hold non-standard residues; d marks the D form. Peptide text beside a SMILES is read from it. ξ: configuration not given here. Thr(3ξ) = CC(O)[C@H](N)C(=O)O; NMeV = CN[C@H](C(=O)O)C(C)C; NMeA = CN[C@@H](C)C(=O)O; Sar = CNCC(=O)O

`CC(C)[C@@H]1NC(=O)[C@H](C(C)C)N(C)C(=O)[C@H](C)NC(=O)[C@H]([C@H](C)O)N(C)C(=O)[C@H](C(C)C)NC(=O)[C@@H]2CCCN2C(=O)[C@H](C(C)C)NC(=O)[C@H](C)N(C)C(=O)[C@H](C(C)C)N(C)C(=O)CN(C)C(=O)[C@H](C)NC(=O)[C@H](C(C)C)N(C)C(=O)[C@H](C)NC(=O)[C@H](C(C)C)N(C)C(=O)[C@H](C(C)C)NC(=O)[C@H](C(C)C)N(C)C(=O)[C@H](C(C)C)NC(=O)[C@H](C(C)C)N(C)C1=O`: the Activity entry in experiment [1] and in experiment [3] was “Dose-dependent-effect” each time. Also, the inhibition result in experiment [2] is “Active”. The inhibition entry in experiment [4] was “Active; Significant Effect Observed”. The result in experiment [5] was Active.

With `CC(C)[C@@H]1NC(=O)[C@H](C(C)C)N(C)C(=O)[C@H]([C@@H](C)O)NC(=O)[C@H](C(C)C)N(C)C(=O)[C@H](C(C)C)NC(=O)[C@H](C(C)C)N(C)C(=O)[C@H](C(C)C)NC(=O)[C@H](C(C)C)N(C)C(=O)[C@H](C(C)C)NC(=O)[C@H](C(C)C)N(C)C(=O)[C@H](C)NC(=O)[C@@H]([C@@H](C)O)N(C)C(=O)[C@H](C(C)C)NC(=O)[C@@H]2CCCN2C(=O)[C@H](C)NC(=O)[C@H](C)N(C)C(=O)[C@H](C(C)C)N(C)C(=O)CN(C)C1=O`, the Activity entry in experiment [1] and in experiment [3] was “Dose-dependent-effect” throughout. Also, the inhibition entry in experiment [2] was “Active”. Also, the inhibition entry in experiment [4] is “Active; Significant Effect Observed”. Besides, the outcome in experiment [5] was Active.

As for `CC(C)[C@@H]1NC(=O)[C@H](C(C)C)N(C)C(=O)[C@H](C)NC(=O)[C@H](C(C)C)N(C)C(=O)[C@H](C(C)C)NC(=O)[C@H](C(C)C)N(C)C(=O)[C@H](C(C)C)NC(=O)[C@H](C(C)C)N(C)C(=O)[C@H](CO)NC(=O)[C@H](C(C)C)N(C)C(=O)[C@H](C)NC(=O)[C@H](C(C)C)N(C)C(=O)[C@H](C)NC(=O)CN(C)C(=O)[C@H](C(C)C)NC(=O)[C@H](C)N(C)C(=O)[C@H](C(C)C)N(C)C(=O)CN(C)C1=O` (cyclo(A[NMeV]A[NMeV]S[NMeV]V[NMeV]V[NMeV]A[NMeV]V[Sar][NMeV][NMeA]V[Sar])), the Activity result is “Dose-dependent-effect” in experiment [1], “Dose-dependent-effect” in experiment [3] and “Active; Significant Effect Was Not Observed” in experiment [5]. The inhibition entry in experiment [2] is “Active”. For the same compound, the inhibition result in experiment [4] is on record as “Active; Significant Effect Observed”.

On to `CC(C)[C@@H]1NC(=O)[C@H](C(C)C)N(C)C(=O)[C@H](C)NC(=O)[C@H](C(C)C)N(C)C(=O)[C@H](C(C)C)NC(=O)[C@H](C(C)C)N(C)C(=O)[C@H](C(C)C)NC(=O)[C@H](C(C)C)N(C)C(=O)[C@H](C(C)O)NC(=O)[C@H](C(C)C)N(C)C(=O)[C@H](C)NC(=O)[C@H](C(C)C)N(C)C(=O)[C@H](C)NC(=O)CN(C)C(=O)[C@H](C(C)C)NC(=O)[C@H](C)N(C)C(=O)[C@H](C(C)C)N(C)C(=O)CN(C)C1=O` (stereo not given in full) (cyclo(A[NMeV]A[NMeV][Thr(3ξ)][NMeV]V[NMeV]V[NMeV]A[NMeV]V[Sar][NMeV][NMeA]V[Sar])), for which the Activity result in experiment [1] and in experiment [3] was “Dose-dependent-effect” each time. In experiment [2], the inhibition result was “Active”. Besides, the inhibition entry in experiment [4] is “Active; Significant Effect Observed”. In addition, the outcome in experiment [5] was Active.
